The source of these data is patent US4234586A, “Nitrogen bridgehead compounds having anti-allergic effect” (Chinoin Gyogyszer es Vegyeszeti Termekek Gyara Rt., priority 1977, dated 1980).

Molecules are shown by their SMILES.

Test [1] concerns rats. The experiment in a line: PCA test (antiallergic effect, rats). Particulars: for inhibition in vivo at 320 µM, 320 µmol/kg / ED50: Rattus norvegicus; for inhibition in vivo at 320 µM, 320 µmol/kg: single dose of 320 μM/kg, route not given, read-out: PCA test, percentage of activity for a single dose of 320 μM/kg. Format: in vivo, rat. The method, then: (§1) The PCA text [Ovary: J. Immun. 81, 355 (1958)] and the Church test [British J. Pharm. 46, 56-66 (1972); Immunology 29, 527-534 (1975)] were used. The tests were carried out on rats.

Test [2] has as its system Released Hist. The experiment in a line: Released Hist. in vitro. The class given is cell-based. The note with it: Rattus norvegicus. On the procedure:
as §1

Test [3] relates to rats. Nature of the test: Church test (antiallergic effect, rats). Format: in vivo. Particulars: Rattus norvegicus, iv. The method, then:
as §1

The test system of test [4] is asthma. Particulars: desired effect only by inhalation (spinhaler); cited from earlier work.
Setting [5] is: iv, rats, i.v., second part of Table 1, read-out: PCA test ED50 i.v.
The mark [6] stands for this setting: iv, read-out: ED50 in the PCA test, further compounds.
The mark [7] stands for this setting: iv, rats, i.v., read-out: PCA test ED50 i.v.
Where [8] appears, read: po, rats, p.o., read-out: PCA test ED50 p.o.

In general, EC50 refers to the concentration at which the effect is half-maximal. For `CC1CCC(=NNc2ccc(Br)cc2)c2ncc(C(=O)O)c(=O)n21` (centres unmarked) [Example 16, 9-(p-bromo-phenyl-hydrazono)-6-methyl-4-oxo-6,7,8,9-tetrahydro-4H-pyrido(1,2-a)pyrimidine-3-carboxylic acid], the inhibition in vivo at 320 µM, 320 µmol/kg in test [1] (rats) is 100%. The EC50 in test [2] (third part of Table 1) is 2 µM.

What is called ED50 is the midpoint of the dose-response relation. Regarding `CC1CCC(=NNc2cccnc2)c2ncc(C(=O)O)c(=O)n21` (centres unmarked) [Example 23, 6-methyl-9-(3-pyridyl-hydrazono)-4-oxo-6,7,8,9-tetrahydro-4H-pyrido(1,2-a)pyrimidine-3-carboxylic acid], the ED50 in test [1] (setting [5]) turned out to be 0.53 µmol/kg; in test [1] (setting [6]), 0.54 µmol/kg. Moreover, in test [2] (second part of Table 1), the EC50 came out at 120 µM.

For `CC1CCC(=NNc2ccccc2)c2ncc(C(=O)O)c(=O)n21` (centres unmarked) [Example 14, 9-(phenyl-hydrazono)-6-methyl-4-oxo-6,7,8,9-tetrahydro-4H-pyrido(1,2-a)pyrimidine-3-carboxylic acid], the ED50 in test [3] amounted to 0.31 µmol/kg; in test [1] (setting [7]) it was 0.6 µmol/kg; in test [1] (setting [8]) it was 1.2 µmol/kg.

On to `CC1CCC(=NNc2ccccc2C(=O)O)c2ncc(C(=O)O)c(=O)n21` (centres unmarked) [Example 17, 9-(o-carboxy-phenyl-hydrazono)-6-methyl-4-oxo-6,7,8,9-tetrahydro-4H-pyrido(1,2-a)pyrimidine-3-carboxylic acid], for which the ED50 in test [1] (setting [6]) was found to be 0.48 µmol/kg.

As for `CC1CCC(=NNc2ccc(C(=O)O)cc2)c2ncc(C(=O)O)c(=O)n21` (centres unmarked) [Example 48, 9-(4-carboxy-phenyl-hydrazono)-6-methyl-4-oxo-6,7,8,9-tetrahydro-4H-pyrido(1,2-a)pyrimidine-3-carboxylic acid], the inhibition in vivo at 320 µM, 320 µmol/kg in test [1] (rats) was determined as 100%. In addition, the EC50 in test [2] (third part of Table 1) amounted to 100 µM.

In the case of `CC1CCC(=NNc2ccc(Cl)cc2)c2ncc(C(=O)O)c(=O)n21` (centres unmarked) [Example 18, 9-(p-chloro-phenyl-hydrazono)-6-methyl-4-oxo-6,7,8,9-tetrahydro-4H-pyrido(1,2-a)pyrimidine-3-carboxylic acid], the ED50 in test [1] (setting [5]) and in test [1] (setting [6]) was 0.53 µmol/kg in each case. Moreover, the EC50 in test [2] (second part of Table 1) stood at 100 µM.

On to `CC1CCC(=NN)c2ncc(C(=O)O)c(=O)n21` (centres unmarked) [Example 26, 9-hydrazono-6-methyl-4-oxo-6,7,8,9-tetrahydro-4H-pyrido(1,2-a)pyrimidine-3-carboxylic acid], for which the inhibition in vivo at 320 µM, 320 µmol/kg in test [1] (rats) worked out at 89%. Moreover, the EC50 in test [2] (third part of Table 1) came to 90 µM.

As to `CCOc1ccc(NN=C2CCC(C)n3c2ncc(C(=O)O)c3=O)cc1` (centres unmarked) [Example 35, 9-(p-ethoxy-phenyl-hydrazono)-6-methyl-4-oxo-6,7,8,9-tetrahydro-4H-pyrido(1,2-a)pyrimidine-3-carboxylic acid], the ED50 in test [1] (setting [6]) worked out at 1 µmol/kg. For the same compound, the inhibition in vivo at 320 µM, 320 µmol/kg in test [1] (rats) is 100%. In addition, the EC50 in test [2] (third part of Table 1) turned out to be 17.6 µM.

Turning to `CC1CCC(=NNc2cccc([N+](=O)[O-])c2)c2ncc(C(=O)O)c(=O)n21` (centres unmarked) [Example 43, 9-(3-nitro-phenyl)-hydrazono-6-methyl-4-oxo-6,7,8,9-tetrahydro-4H-pyrido(1,2-a)pyrimidine-3-carboxylic acid], in test [1] (rats), the inhibition in vivo at 320 µM, 320 µmol/kg was determined as 100%. The EC50 in test [2] (third part of Table 1) is 100 µM.

On to `O=C(O)c1cc(=O)c2c(OCC(O)COc3cccc4oc(C(=O)O)cc(=O)c34)cccc2o1` [Disodium-chromoglycate, reference compound], for which the results for the median effective dose (ED50) in test [3] and in test [1] (setting [7]) were 0.84 µmol/kg and 1 µmol/kg, respectively. Moreover, the “anti-asthmatic effect when administered orally” value in test [4] was “ineffective when administered orally”. In addition, the “activity by route of administration (in words)” value in test [1] (oral vs intravenous) is “effective only when administered intravenously”. In addition, the “PCA test ED50 p.o. (result in words)” value in test [1] (rats, p.o.) was “ineffective”.

For the compound `Cc1cccc(NN=C2CCC(C)n3c2ncc(C(=O)O)c3=O)c1` (centres unmarked) [Example 50, 9-(3-methyl-phenyl-hydrazono)-6-methyl-4-oxo-6,7,8,9-tetrahydro-4H-pyrido(1,2-a)pyrimidine-3-carboxylic acid], in test [1] (rats), the inhibition in vivo at 320 µM, 320 µmol/kg came out at 100%. The EC50 in test [2] (third part of Table 1) came out at 73 µM.

As to `CC1CCC(=NNc2ccccc2)c2ncc(C(=O)O)c(=O)n21` (single isomer, unassigned; (+)) [Example 37, (+)-9-(phenyl-hydrazono)-6-methyl-4-oxo-6,7,8,9-tetrahydro-4H-pyrido(1,2-a)pyrimidine-3-carboxylic acid], the values for the ED50 in test [3], in test [1] (setting [7]) and in test [1] (setting [8]) were 0.14 µmol/kg, 0.29 µmol/kg and 1 µmol/kg, respectively.

For the compound `CC1CCC(=NNc2cccc(Cl)c2)c2ncc(C(=O)O)c(=O)n21` (centres unmarked) [Example 45, 9-(3-chloro-phenyl-hydrazono)-6-methyl-4-oxo-6,7,8,9-tetrahydro-4H-pyrido(1,2-a)pyrimidine-3-carboxylic acid], the inhibition in vivo at 320 µM, 320 µmol/kg in test [1] (rats) is 100%. Also, the EC50 in test [2] (third part of Table 1) turned out to be 312 µM.

`CC1CCC(=NNc2ccc(Cl)c(Cl)c2)c2ncc(C(=O)O)c(=O)n21` (centres unmarked) [Example 41, 9-(3,4-dichloro-phenyl-hydrazono)-6-methyl-4-oxo-6,7,8,9-tetrahydro-4H-pyrido-(1,2-a)pyrimidine-3-carboxylic acid]: in test [1] (rats), the inhibition in vivo at 320 µM, 320 µmol/kg was determined as 100%. In test [2] (third part of Table 1), the EC50 amounted to 100 µM.
